The values that follow come from US20050147698A1, “Co-beadlet of dha and rosemary and methods of use” (Alcon, Inc., priority 2003, published 2005).

For the experiment, the system named is retinas. The experiment is described as follows: protection of retinas from acute light-induced toxicity. It counts as in vivo. To be noted: no data or method given.

With Vitamin E, the “protection of retinas from acute light-induced toxicity” value is listed as “effective in protecting retinas from acute light-induced toxicity”.
